For one experiment, the target named is kappa opioid receptor (Homo sapiens, UniProt P41145). Briefly: opioid receptor binding assay (Ki), kappa.
A further experiment has as its target delta opioid receptor (Homo sapiens, UniProt P41143). Briefly: opioid receptor binding assay (Ki), delta.
In another experiment the target is mu opioid receptor (Homo sapiens, UniProt P35372). Briefly: opioid receptor binding assay (Ki), mu.
The target of experiment [1] is T1, cloned human delta opioid receptor (Homo sapiens, UniProt P41143).
T1 construct: expressed in transfected cells
As to the kind of experiment: GTP-γ-S binding assay, antagonist potency (Kb), delta. The experiment is classed as biochemical. Particulars: functional antagonist potency vs DPDPE 30 nM; Cheng-Prusoff. As to the method:
(§1) The functional antagonist potency (Kb) of the sample compounds was determined using the GTPγS binding assay. GTPgS-based functional assays provide an in vitro measure of the activity of opioid agonists and antagonists. Opioid reference compounds or test compound are incubated with membrane homogenate from cells expressing the cloned human mu, kappa or delta opioid receptor and radiolabeled [35S]GTPgS. If the compound activates the opioid receptor, an increase in the binding of radiolabeled GTPgS is observed. […] These tests provide an in vitro measurement of the activity of the compound at human opioid receptors.
(§2) An SPA-based GTP-γ-S assay format was developed based on previous opioid (Emmerson et al., J. Pharm Exp Ther 278,1121,1996; Horng et al., Society for Neuroscience Abstracts, 434.6, 2000) and muscarinic (DeLapp et al., JPET 289, 946, 1999) assay formats. Membranes were resuspended in 20 mM HEPES, 100 mM NaCl, 5 mM MgCl2, 1 mM DTT, and 1 mM EDTA. Fifty (50) […] of GTP-γ-[35S], compound, membrane suspension (20 microgram/well), and wheat germ agglutinin coated SPA beads (1 mg/well) were added to clear bottom 96 well assay plates. GDP ([…]) was added to the membrane solution prior to addition to the assay plates. Plates were sealed and incubated for four hours at room temperature then placed in a refrigerator overnight to allow the beads to settle. Signal stability at 4° C. was determined to be >60 hours. Plates were warmed to room temperature and counted in a Wallac Microbeta scintillation counter. For antagonist assays, specific agonists were added at the following concentrations: (MOR) DAMGO 1 micromolar, (DOR) DPDPE 30 nM, (KOR) U69593 300 nM. Kb's were determined by Cheng-Prusoff equation (see Cheng and Prusoff, Biochem. Pharmacol. 22, 3099, 1973).
A general note: GTPγS is a poorly hydrolysed GTP analogue; its binding reports G protein activation.

The target of experiment [2] is T2, cloned human kappa opioid receptor (Homo sapiens, UniProt P41145).
T2 construct: expressed in transfected cells
Briefly: GTP-γ-S binding assay, antagonist potency (Kb), kappa. The experiment is classed as biochemical. Particulars: functional antagonist potency vs U69593 300 nM; Cheng-Prusoff. The method, then: as §1, §2

The target in experiment [3] is T3, cloned human mu opioid receptor (Homo sapiens, UniProt P35372).
T3 construct: expressed in transfected cells
As to the kind of experiment: GTP-γ-S binding assay, antagonist potency (Kb), mu. The experiment is classed as biochemical. Particulars: functional antagonist potency vs DAMGO 1 micromolar; Cheng-Prusoff. The method, then:
as §1, §2

What is called Ki is the dissociation constant of the complex between target and ligand, obtained from inhibition or displacement. For orientation: Kb means the affinity of an antagonist, worked out from how it opposes an agonist.

T2 sequence (P41145 whole entry): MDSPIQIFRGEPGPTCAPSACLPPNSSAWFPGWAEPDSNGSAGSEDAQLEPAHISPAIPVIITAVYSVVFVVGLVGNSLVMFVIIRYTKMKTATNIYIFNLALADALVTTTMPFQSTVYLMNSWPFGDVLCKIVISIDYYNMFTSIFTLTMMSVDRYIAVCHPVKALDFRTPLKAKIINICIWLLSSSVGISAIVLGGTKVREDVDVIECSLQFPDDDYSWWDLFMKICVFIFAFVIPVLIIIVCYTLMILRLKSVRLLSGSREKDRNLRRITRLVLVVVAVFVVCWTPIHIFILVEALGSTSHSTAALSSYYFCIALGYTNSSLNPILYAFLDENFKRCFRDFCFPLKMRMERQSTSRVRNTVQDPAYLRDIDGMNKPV
Chain of kappa opioid receptor (P41145 whole entry): as above
Chain of mu opioid receptor (P35372 whole entry): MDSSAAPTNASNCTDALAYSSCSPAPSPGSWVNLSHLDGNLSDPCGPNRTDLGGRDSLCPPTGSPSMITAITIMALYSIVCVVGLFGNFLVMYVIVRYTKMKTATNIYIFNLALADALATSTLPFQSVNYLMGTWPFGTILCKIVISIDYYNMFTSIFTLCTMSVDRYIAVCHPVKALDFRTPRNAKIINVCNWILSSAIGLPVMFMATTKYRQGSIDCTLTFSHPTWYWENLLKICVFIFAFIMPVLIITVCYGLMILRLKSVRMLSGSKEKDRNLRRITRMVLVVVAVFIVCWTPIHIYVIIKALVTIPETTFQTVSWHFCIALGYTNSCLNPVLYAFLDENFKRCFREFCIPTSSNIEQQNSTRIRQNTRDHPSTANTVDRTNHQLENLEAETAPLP
T3 sequence (P35372 whole entry): as above
Chain of delta opioid receptor (P41143 whole entry): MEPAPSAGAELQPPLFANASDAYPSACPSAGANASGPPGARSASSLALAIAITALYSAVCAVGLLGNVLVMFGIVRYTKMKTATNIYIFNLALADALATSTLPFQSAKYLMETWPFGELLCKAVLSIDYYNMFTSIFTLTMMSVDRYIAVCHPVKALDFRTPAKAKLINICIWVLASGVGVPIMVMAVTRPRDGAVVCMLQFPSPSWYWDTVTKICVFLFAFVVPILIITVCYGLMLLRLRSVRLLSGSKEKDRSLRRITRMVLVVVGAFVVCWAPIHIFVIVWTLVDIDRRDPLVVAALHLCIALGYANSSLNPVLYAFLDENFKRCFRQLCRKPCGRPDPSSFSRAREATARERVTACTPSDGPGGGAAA
T1 sequence (P41143 whole entry): as above

Consider `CC(C)CCNCc1ccc2c(ccn2Cc2ccc(C(N)=O)cc2)c1` [Example 1, 4-{5-[(3-Methyl-butylamino)-methyl]-indol-1-ylmethyl}-benzamide], for which the figures for the Ki at kappa opioid receptor, at delta opioid receptor and at mu opioid receptor were 362 nM, 170 nM and 18.1 nM, respectively. For the same compound, the antagonist dissociation constant (Kb) came out at 21.7 nM in experiment [1], 59.9 nM in experiment [2] and 4.2 nM in experiment [3].

As to `NC(=O)c1ccc(Cn2ccc3cc(CNCCc4cccs4)ccc32)cc1` [Example 2, 4-{5-[(2-Thiophen-2-yl-ethylamino)-methyl]-indol-1-ylmethyl}-benzamide], the figures for the Ki on kappa opioid receptor, at delta opioid receptor and at mu opioid receptor were 411 nM, 154 nM and 21.3 nM, respectively. The values for the Kb in experiment [1], in experiment [2] and in experiment [3] were 15 nM, 50.1 nM and 2 nM, respectively.

For `CC(C)(C)CCNCc1ccc2c(ccn2Cc2ccc(C(N)=O)cc2)c1` [Example 3, 4-{5-[(3,3-Dimethyl-butylamino)-methyl]-indol-1-ylmethyl}-benzamide], the figures for the Ki at kappa opioid receptor, at delta opioid receptor and on mu opioid receptor were 106 nM, 98.2 nM and 15.6 nM, respectively. Moreover, the Kb in experiment [1] was 19.2 nM; in experiment [2] it was 50.5 nM; in experiment [3], 4.4 nM.

With `NC(=O)c1ccc(CN2CCc3cc(CNCCc4cccs4)ccc32)cc1` [Example 4, 4-{5-[(2-Thiophen-2-yl-ethylamino)-methyl]-2,3-dihydro-indol-1-ylmethyl}-benzamide], the results for the Ki on kappa opioid receptor, on delta opioid receptor and at mu opioid receptor were 226 nM, 111 nM and 13.4 nM, respectively. The antagonist dissociation constant (Kb) in experiment [1] is 19.2 nM; in experiment [2] it was > 42 nM; in experiment [3] it was 2.1 nM.

For `CC(C)CCNCc1ccc2c(c1)CCN2Cc1ccc(C(N)=O)cc1` [Example 5, 4-{5-[(3-Methyl-butylamino)-methyl]-2,3-dihydro-indol-1-ylmethyl}-benzamide], the Ki worked out at 387 nM on kappa opioid receptor, 259 nM on delta opioid receptor and 24.5 nM on mu opioid receptor. The Kb in experiment [1] was 24.3 nM; in experiment [2] it was > 42 nM; in experiment [3] it was 3.3 nM.

For the compound `CC(C)(C)CCNCc1ccc2c(c1)CCN2Cc1ccc(C(N)=O)cc1` [Example 6, 4-{5-[(3,3-Dimethyl-butylamino)-methyl]-2,3-dihydro-indol-1-ylmethyl}-benzamide], the Ki at kappa opioid receptor came to 340 nM; on delta opioid receptor it was 193 nM; at mu opioid receptor, 20.5 nM. Further, the Kb in experiment [1] came out at 20.3 nM; in experiment [2], 21.4 nM; in experiment [3], 4 nM.

As for `CCCCCCNCc1ccc2c(ccn2Cc2ccc(C(N)=O)cc2)c1` [Example 7, 4-(5-Hexylaminomethyl-indol-1-ylmethyl)-benzamide], the Ki was 345 nM at kappa opioid receptor, 176 nM at delta opioid receptor and 22.1 nM on mu opioid receptor. Besides, the Kb in experiment [1] was 27.4 nM; in experiment [2], > 35 nM; in experiment [3], 5.8 nM.

Regarding `NC(=O)c1ccc(Cn2ccc3cc(CNCCCc4ccccc4)ccc32)cc1` [Example 8, 4-{5-[(3-Phenyl-propylamino)-methyl]-indol-1-ylmethyl}-benzamide], the inhibitory constant (Ki) worked out at 304 nM on kappa opioid receptor, 633 nM at delta opioid receptor and 59.3 nM at mu opioid receptor.

With `NC(=O)c1ccc(Cn2ccc3cc(CNCCc4ccccc4F)ccc32)cc1` [Example 9, 4-(5-{[2-(2-Fluoro-phenyl)-ethylamino]-methyl}-indol-1-ylmethyl)-benzamide], the results for the Ki at kappa opioid receptor, at delta opioid receptor and at mu opioid receptor were 332 nM, 144 nM and 20.8 nM, respectively. Further, the Kb in experiment [1] is 20.7 nM; in experiment [2] it was > 35 nM; in experiment [3] it was 6.2 nM.

In the case of `NC(=O)c1ccc(Cn2ccc3cc(CNCCO)ccc32)cc1` [Example 10, 4-{5-[(2-Hydroxy-ethylamino)-methyl]-indol-1-ylmethyl}-benzamide], the inhibition constant (Ki) on kappa opioid receptor was 3190 nM; at delta opioid receptor, > 5000 nM; at mu opioid receptor, 478 nM.

Turning to `COc1ccc(CCNCc2ccc3c(ccn3Cc3ccc(C(N)=O)cc3)c2)cc1` [Example 11, 4-(5-{[2-(4-Methoxy-phenyl)-ethylamino]-methyl}-indol-1-ylmethyl)-benzamide], the results for the inhibitory constant (Ki) on kappa opioid receptor, on delta opioid receptor and at mu opioid receptor were 1110 nM, 2550 nM and 319 nM, respectively. Moreover, the antagonist dissociation constant (Kb) in experiment [1] is > 50 nM; in experiment [2], > 42 nM; in experiment [3], 8.4 nM.

These data come from US8088800B2, “4-(5-aminomethyl)-indole-1-ylmethyl)-benzamide derivatives and related compounds as opioid receptor antagonists for the treatment of obesity” (Eli Lilly and Company, priority 2004, dated 2012).
